Test results: patent US9333207B2, “Pharmaceutical composition of 1-adamantylethyloxy-3-morpholino-2-propanol or pharmaceutically acceptable salts thereof for the treatment of cerebrovascular disease and neurodegenerative diseases of the central nervous system” (priority 2012, dated 2016)

Key:
[1] = Cerebral blood flow in the internal carotid artery system under ACVA model by ischemic and hemorrhagic types; format: in vivo; settings: rats, intravenous, doses of 3, 30, 50 and 100 mg/kg
neurospecific enolase = assay: Experimental treatment of rats with ischemic ACVA: neuronal degradation marker activity; format: in vivo; settings: 10 mg/kg once a day for 96 hours of ischemia
From the text: This evidences about the appropriateness of the use of the pharmaceutical compositions for parenteral use comprising the active substance 1-adamantylethyloxy-3-morpholino-2-propanol or pharmaceutically acceptable salts thereof for treatment and prevention of ischemic brain lesions after thrombolysis, stenting, balloon angioplasty, atheroctomy and removal of aneurysms in the internal carotid and vertebral arteries system.

[2] = test system: NMDA-receptor-ionofor complex of hippocampal pyramidal neurons; assay: Aspartate-activated currents in individual pyramidal hippocampal neurons; format: cell-based, white Wistar WAG\GSto rats; settings: individual pyramidal hippocampal neurons of 15-day aged rats
[3] = Experimental treatment of rats with ischemic ACVA: endothelial dysfunction and nitrosating stress; format: in vivo; settings: 20 mg/kg once a day for 96 hours of ischemia
From the text: This provides the basis of its use for treatment and prevention of ischemic brain lesions after thrombolysis, stenting, balloon angioplasty, atheroctomy and removal of aneurysms in the internal carotid and vertebral arteries system.

## OC(COCCC12CC3CC(CC(C3)C1)C2)CN1CCOCC1 (stereo not drawn) [1-adamantylethyloxy-3-morpholino-2-propanol]
[1]
  cerebral blood flow in the internal carotid artery system: stimulates the cerebral blood flow
Neurospecific enolase
  neuronal degradation marker activity (neurospecific enolase): promoted the reduction
[2]
  NMDA-receptors blocking/unblocking: very fast
  modulation of aspartate-activated currents (action on NMDA-receptor-ionofor complex): exhibits properties of activator NMDA-receptor-ionofor complex
[3]
  endothelial dysfunction manifestations: promoted the decrease
  nitrosating stress manifestations: promoted the decrease
